Data set [1] concerns HTSE cells. Nature of the data set: LDH release cytotoxicity assay in HTSE cells. Type of data set: cell-based, Golden Syrian hamsters. Conditions: for cytotoxicity as determined by LDH release / LDH release: HTSE cells; for cytotoxicity as determined by LDH release: techniques of examples 1-4; for LDH release: 10^-5 M, 30 min treatment; for LDH release across concentration groups: varying concentrations, 30 min, HTSE cells (FIG. 2). The protocol: (§1) The effects of PLA or PLL on cell toxicity were also examined. The possible cytotoxicity of these polypeptides was assessed by four different methods: (a) LDH release, (b) ^51Cr release, (c) cell exfoliation, and (d) light microscopy. Cultures were treated with either PLA or PLL for 30 min, and then assayed as follows. An LDH assay was conducted using an LDH assay kit (LD-L10) (Sigma Chemical Co., St. Louis, Mo.), according to the manufacturer's directions. A 51Cr release assay was carried out as described in Kim et al., 1987, Proc. Natl. Acad. Sci. USA 84:9304-9308. The degree of exfoliation was measured by counting the floating cells at the end of the 24 hr post-treatment period. Floating cells were collected as a pellet from spent media by centrifugation at 200×g for 5 min at 4° C. The resulting cell pellet was suspended in a solution containing 0.05% Trypsin and 0.02% EDTA, and the suspension was incubated at 37° C. for 10 min before dissociated cells were counted using a hemacytometer.
(LDH in the medium is a marker of cell lysis.)

The test system of data set [2] is hamster tracheal surface epithelial (HTSE) cells. Nature of the data set: Mucin release from cultured airway goblet cells (3H-glucosamine-labelled HTSE cell culture). Format: cell-based, Golden Syrian hamsters. Particulars: for effect on mucin release/secretion (dose dependence): varying concentrations; for effect on mucin release/secretion (dose dependence) / "inhibition" of released mucins: 30 min chase, HTSE cells; for inhibitory effect on mucin release after LMWH pretreatment: 10^-5 M peptide, pretreatment with 2×10^-5 M LMWH for 5 min; for "inhibition" of released mucins / effect on mucin release, column-purified versus not column purified: 10^-5 M; for effect on mucin release, column-purified versus not column purified: unacetylated peptide. The protocol:
The effects of poly-L-arginine (PLA) and poly-L-lysine (PLL) on mucin release from cultured airway goblet cells were evaluated. Tracheas obtained from 7-8 week old male Golden Syrian hamsters (Harlan Sprague Dawley, Indianapolis, Ind.) were used to establish a hamster tracheal surface epithelial, (HTSE) cell culture. HTSE cells were harvested and cultured on a thick collagen gel as described in Kim et al., 1989, Exp. Lung Res. 15: 299-314. Mucins were metabolically radiolabeled by incubating confluent cultures (24 well plate, 5×10^5 cells/well) with 0.2 ml/well of a “complete” medium containing 10 μCi/ml of ^3H-glucosamine for 24 hours as described in Kim et al., 1989, Am. J. Resp. Cell Mol. Biol. 1: 137-143. The “complete” medium was prepared by supplementing a mixture of Medium 199/Dulbecco's modified Eagle's medium (DME) (1:1) with insulin (5 μg/ml), transferrin (5 μg/ml), epidermal growth factor (12.5 ng/ml), 0.1 μM hydrocortisone, 0.01 μM sodium selenite, 0.1 μM retinoic acid, and 5% fetal bovine serum (Hyclone, Logan, Utah). At the end of the 24 hour incubation period, the spent media (the pretreatment sample) were collected, and the labeled cultures were washed twice with Dulbecco's PBS without Ca^++ and Mg^++ and then chased for 30 min in the presence of varying concentrations of poly-L-arginine (PLA, average MW 8,900) or poly-L-lysine (PLL, average MW 9,600). The chased media are referred to as the treatment samples. PLA and PLL were prepared in phosphate buffered saline (PBS), and the final pH's of these solutions were adjusted to be between 7.0 and 7.4. […] J. Resp. Cell Mol. Biol. 1: 137-143. At the end of the chase period, floating cells and cell debris were removed from the treatment samples by centrifigation at 12,000×g for 5 min. Fifty μl of the treatment samples were used for lactate dehydrogenase (LDH) assay (as discussed in Example 2 below) and the remaining samples were stored at −80° C. until assayed for their ^3H-mucin contents. High molecular weight glycoconjugates that were excluded after Sepharose CL-4B (Phainacia, Upsaala, Sweden) gel-filtration column chromatography and that were resistant to hyaluronidase, were defined as mucins, as described in Kim et al., 1985, J. Biol. Chem. 260:4021:4027. Mucins were measured by column chromatography as described in Kim et al, 1987, Proc. Natl. Acad. Sci. USA 84:9304-9308.

For data set [3], the system named is SO2-induced goblet cell metaplasia. The data set is described as follows: SO2-induced goblet cell metaplasia in rats (inhaled peptide, PAS staining). Type of data set: in vivo, Sprague-Dawley rats. Particulars: rat, inhaled 100 μl of 50, 500 or 5,000 μM once a day for five days, 150 ppm SO2. On the procedure:
To examine the effects of PLL or PLA in vivo, the effect of PLL or PLA on goblet cell metaplasia in rats was determined. Exposure of rats to SO2 was carried out essentially according to the method described in Kase et al, 1982, Arzneim-Forsch Drug Research 32:368-373. Eight to ten week-old male Sprague-Dawley rats were placed in a polyacrylic chamber (100 cm×60 cm×25 cm) and exposed to SO2 for three weeks, three hours per day, five days per week. The SO2 gas was generated from a solution containing 10% (W/V) sodium metabisulfite by aerosolization using an ultrasonic humidifier (Samsung Electronic Co., Korea). Concentrations of the generated SO2 gas were monitored before and after the exposure using a SO2 detector kit (Gastec Co., Japan), which has a detection range from 20 to 3600 ppm of SO2. The concentration of the SO2 gas inside the chamber was maintained at 150 ppm during all of the exposure periods.
PLA (average MW 10,800) was prepared in phosphate buffered saline (PBS), pH 7.2, in various concentrations. Following treatment of the animals with SO2 for 2 weeks, animals were treated with both S and PLA during a third week. A 100 μl aliquot of one of the PLA solutions was administered to each rat using an inhaler (PAPI master, Stamberg, Germany), once a day for five consecutive days, during the period immediately following the two week SO2 treatment period. […]

Data set [4] relates to HTSE cells. The data set is described as follows: ATP-induced mucin release in HTSE cells. Type of data set: cell-based, Golden Syrian hamsters. Particulars: 10^-5 M peptide with 2×10^-4 M ATP, 30 min chase. On the procedure:
The effects of poly-L-arginine (PLA) and poly-L-lysine (PLL) on mucin release from cultured airway goblet cells were evaluated. Tracheas obtained from 7-8 week old male Golden Syrian hamsters (Harlan Sprague Dawley, Indianapolis, Ind.) were used to establish a hamster tracheal surface epithelial, (HTSE) cell culture. HTSE cells were harvested and cultured on a thick collagen gel as described in Kim et al., 1989, Exp. Lung Res. 15: 299-314. Mucins were metabolically radiolabeled by incubating confluent cultures (24 well plate, 5×10^5 cells/well) with 0.2 ml/well of a “complete” medium containing 10 μCi/ml of ^3H-glucosamine for 24 hours as described in Kim et al., 1989, Am. J. Resp. Cell Mol. Biol. 1: 137-143. The “complete” medium was prepared by supplementing a mixture of Medium 199/Dulbecco's modified Eagle's medium (DME) (1:1) with insulin (5 μg/ml), transferrin (5 μg/ml), epidermal growth factor (12.5 ng/ml), 0.1 μM hydrocortisone, 0.01 μM sodium selenite, 0.1 μM retinoic acid, and 5% fetal bovine serum (Hyclone, Logan, Utah). […] Mucins were measured by column chromatography as described in Kim et al, 1987, Proc. Natl. Acad. Sci. USA 84:9304-9308. […]

The test system of data set [5] is HTSE cells. Nature of the data set: Light microscopy of treated HTSE cells. Conditions: end of 30 min treatment or end of 24 hr post-treatment period. Type of data set: cell-based, Golden Syrian hamsters. On the procedure: as §1
Data set [6] concerns HTSE cells. Nature of the data set: 51Cr release assay in HTSE cells. Format: cell-based, Golden Syrian hamsters. Particulars: 10^-5 M, 30 min; control 100±4%. On the procedure:
as §1

In data set [7] the test system is HTSE cells. The data set is described as follows: Cell exfoliation (floating cell count) in HTSE cultures. Format: cell-based, Golden Syrian hamsters. Conditions: 10^-5 M; 24 hr post-treatment period; control 1992±132. On the procedure: as §1

Consider “poly-L-arginine [High molecular weight PLA]”, for which the “cytotoxicity as determined by LDH release” value (from here on “cytotoxicity as determined”) in data set [1] is on record as “associated with cytotoxicity”. The “effect on mucin release/secretion (dose dependence)” value (“effect on mucin release/secretion” for short) in data set [2] is “inhibited mucin secretion in a dose-dependent fashion”.

As to “poly-L-arginine [Low molecular weight PLA (14 residues)]”, in data set [1], the “cytotoxicity as determined” value is “without any evidence of cytotoxicity”. Moreover, the “effect on mucin release/secretion” value in data set [2] is given as “inhibited mucin secretion in a dose dependent fashion”.

With “poly-L-arginine [Low molecular weight PLA (20 residues)]”, in data set [1], the “cytotoxicity as determined” value was “without any evidence of cytotoxicity”. Moreover, in data set [2], the “effect on mucin release/secretion” value is recorded as “inhibited mucin secretion in a dose dependent fashion”.

For the substance poly-L-arginine [PLA (5 residues)], in data set [2], the “effect on mucin release/secretion” value is recorded as “did not show any significant inhibition”.

Regarding “poly-L-arginine [PLA (average MW 10,800)]”, in data set [3], the “goblet cell metaplasia induced by SO2” value is “prevented by PLA in a dose-dependent fashion”.

In the case of poly-L-arginine [PLA], the “stimulatory effect of ATP on mucin release” value in data set [4] was “completely blocked”. In addition, in data set [1], the LDH release entry was “no significant increases” and the “LDH release across concentration groups” value was “no significant difference”. Besides, the “microscopic difference between control and treated cells” value in data set [5] is “no apparent microscopic difference”. For the same substance, the 51Cr release in data set [6] is recorded as 102±11%. Besides, in data set [7], the “number of floating cells/well” value was determined as 2154±84 cells/well. In addition, in data set [2], the “inhibitory effect on mucin release after LMWH pretreatment” value is given as “completely blocked”; the “"inhibition" of released mucins” value was 85%; the “effect on mucin release, column-purified versus not column purified” value is recorded as “no significant difference”; the “effect on mucin release/secretion” value is given as “dose-dependent decrease”.

Take “poly-L-lysine [High molecular weight PLL]”: the “cytotoxicity as determined” value in data set [1] is reported as “associated with cytotoxicity”. In addition, in data set [2], the “effect on mucin release/secretion” value was “inhibited mucin secretion in a dose-dependent fashion”.

With “poly-L-lysine [Low molecular weight PLL (5 residues)]”, the “effect on mucin release/secretion” value in data set [2] is listed as “did not show any significant inhibition”.

As to “poly-L-lysine [Low molecular weight PLL (14 residues)]”, in data set [1], the “cytotoxicity as determined” value is “without any evidence of cytotoxicity”. The “effect on mucin release/secretion” value in data set [2] was “inhibited mucin secretion in a dose dependent fashion”.

As to “poly-L-lysine [Low molecular weight PLL (20 residues)]”, the “cytotoxicity as determined” value in data set [1] is “without any evidence of cytotoxicity”. Moreover, the “effect on mucin release/secretion” value in data set [2] is recorded as “inhibited mucin secretion in a dose dependent fashion”.

On to poly-L-lysine [PLL], for which, in data set [4], the “stimulatory effect of ATP on mucin release” value was “completely blocked”. In data set [1], the LDH release result is recorded as “no significant increases” and the “LDH release across concentration groups” value is “no significant difference”. Also, in data set [5], the “microscopic difference between control and treated cells” value is given as “no apparent microscopic difference”. In data set [6], this substance registered a 51Cr release of 103±10%. The “number of floating cells/well” value in data set [7] is 1920±70 cells/well. For the same substance, in data set [2], the “inhibitory effect on mucin release after LMWH pretreatment” value is given as “completely blocked”; the “"inhibition" of released mucins” value amounted to 87%; the “effect on mucin release, column-purified versus not column purified” value is on record as “no significant difference”; the “effect on mucin release/secretion” value is “dose-dependent decrease”.

The values above are taken from patent US20010033827A1, “Inhibition of mucin release from airway goblet cells by polycationic peptides” (priority 1999, published 2001).
